Tested on: oedème généralisé au dextran
Assay: generalized dextran oedema test (anti-inflammatory activity, oral, rat)
Format: in vivo

CC(C)CCCCCCCCCCC(=O)O [acide isomyristique, acide méthyl-12 tridécanoTque]
propriétés anti-inflammatoires (test de l'oedème généralisé au dextran) (solution à 1 % dans l'huile d'arachide, voie orale chez le rat, by action on the vascular phase and decrease of platelet aggregation): propriétés anti-inflammatoires marquées

CCC(C)CCCCCCCCCC(=O)O (centres unmarked) [acide antéisomyristique, acide méthyl-11 tridécanoique]
activité anti-inflammatoire (même type) (administration par voie orale chez le rat, concentration and vehicle not stated): Le même type d'activité anti-inflammatoire a été mis en évidence
